From US20240181068A1, “SELECTIVE NEUTRAL PH INHIBITOR OF CATHEPSIN B” (The Regents of the University of California, priority 2021, published 2024)

Legend:
Format in all cases: biochemical
[1] = target: T1, cathepsin B in SHSY5Y human neuroblastoma cell homogenate (Homo sapiens, UniProt P07858); test: Cathepsin B activity in neuroblastoma cell homogenates in presence of inhibitors; conditions: inhibitor 1 μM, Z-Arg-Arg-AMC substrate, pH 5.5
T1 construct: endogenous in cells; host or cells: SH-SY5Y human neuroblastoma cells
Experimental: Cathepsin B in human neuroblastoma cells treated with inhibitors. Neuroblastoma cells (human SHSY5Y) were grown in media consisting of 50% MEMalpha, 50% F12-K, 10% heat-inactivated FBS at 37° C. in an atmosphere of 95% air and 5% CO2. Firstly, cell homogenates were prepared by collection of cells in 0.32 M sucrose and freeze-thawing. Secondly, cells were incubated with Z-Arg-Lys-AOMK or CA-074Me for 6 hours at 37° C., and washed 3 times in phosphate-buffered saline and homogenates were prepared in 0.32 M sucrose with freeze-thawing. CA-074Me is a methyl ester form of the active CA-074 selective inhibitor of cathepsin B (70); CA-074Me penetrates the cell and is converted by intracellular esterases to CA-074.
Cathepsin B activity in the homogenates were monitored with Z-Arg-Arg-AMC substrate (60 μM) with buffer conditions of 40 mM citrate-phosphate, pH 5.5, 5 mM DTT, 1 mM EDTA, 100 mM NaCl, and 1.2% DMSO, followed by incubation at 37° C. for 30 minutes and reading of AMC fluorescence. CA-074-senstive activity was monitored to indicate cathepsin B activity, since CA-074 is a selective inhibitor of this enzyme (70). Protein content was measured in homogenates with the DC protein assay kit. Cathepsin B specific activity was calculated as nmol AMC/μg/min, and reported as the mean±SD (with analyses for statistical significance, p<0.05 by student's t-test).

[2] = target: T2, cathepsin L (Homo sapiens, UniProt P07711); test: Specificity of inhibitors: cathepsin L (Z-Phe-Arg-AMC substrate)
T2 construct: purchased R&D Systems 952-CY-010
Experimental: (§1) Specificity of inhibitors for other cysteine cathepsin proteases. The effects of Z-Arg-Lys-AOMK and Z-Glu-Lys-AOMK on cathepsin V, L, K, S, X, H and C activities were assessed. IC50 values were calculated at pH 4.6 and pH 7.2 conditions, consisting of 40 mM citrate phosphate, 1 mM EDTA, 100 mM NaCl, and 5 mM DTT. The inhibitor concentrations ranged from 16.38 μM to 256 nM with 2-fold serial dilutions. […] Cathepsin V (0.04 ng/μL), cathepsin L (0.03 ng/μL), cathepsin K (0.10 ng/μL), cathepsin S (0.20 ng/uL) were assayed with 40 μM Z-Phe-Arg-AMC. Cathepsin X (0.20 ng/uL), cathepsin C (0.51 ng/uL) and cathepsin H (0.1 ng/μL) were assayed with 40 μM of MCA-Arg-Pro-Pro-Gly-Phe-Ser-Ala-Phe-Lys(Dnp)OH (SEQ ID NO: 2), Gly-Arg-AMC, and Arg-AMC, respectively. Activation of pro-cathepsin H to cathepsin H was conducted by incubation of cathepsin H (4.4 ng/μL) with cathepsin L (1.1 ng/μL) at RT for 2 hrs in activation buffer (20 mM citrate phosphate pH 6.0, 100 mM NaCl, and 5 mM DTT). Cathepsin C (13.78 ng/μL) was activated by incubation with cathepsin L (3.4 ng/μL) at RT for one hr in activation buffer (20 mM citrate phosphate, pH 6.0, 100 mM NaCl, 5 mM DTT). […] For all assays containing peptide-AMC substrates the fluorescent microplate reader settings were the same as outlined above for cathepsin B. For the cathepsin X assay, the plate reader was set to excitation 320 nm, emission 400 nm, gain 105, top optics and read height 1 mm. To convert RFU/s to picomol/min, 10 μM to 0.005 μM (2-fold serial dilution) of MCA-Arg-Pro-Pro-Gly-Phe-Ser-Ala-Phe-Lys(Dnp)OH (SEQ ID NO: 2) was fully hydrolyzed with excess cathepsin X and a standard curve was generated using the total fluorescence values calculated at each concentration.

[3] = target: T3, cathepsin B (Homo sapiens, UniProt P07858); test: Irreversible mechanism of inhibitors (pre-incubation, dilution, activity); conditions: pH 7.2
T3 construct: purchased R&D Systems 953-CY-010
Experimental: Irreversible mechanism of inhibitors. The irreversible or reversible mechanism of cathepsin B inhibition was assessed for Z-Arg-Lys-AOMK and Z-Glu-Lys-AOMK inhibitors. At pH 7.2, cathepsin B was incubated with 190 nM Z-Arg-Lys-AOMK and 4.99 μM Z-Glu-Lys-AOMK for 15 min in pH 7.2 assay buffer and the assay was performed as described above for pH 4.6. Proteolytic activity was monitored for 2 hr. At pH 4.6, cathepsin B (activated, 3.7 ng/μL) was incubated with 4.24 μM Z-Arg-Lys-AOMK and 3.48 μM Z-Glu-Lys-AOMK for 15 min in 40 mM citrate phosphate pH 4.6, 1 mM EDTA, 100 mM NaCl, and 5 mM DTT; a vehicle control contained 2.5% DMSO. Each reaction was then diluted 100-fold in assay buffer such that the final assay composition was 0.04 ng/μL cathepsin B, 40 μM Z-Phe-Arg-AMC, and an inhibitor concentration of 1/10th the IC50 value.

[4] = target: T4, cathepsin K (Homo sapiens, UniProt P43235); test: Specificity of inhibitors: cathepsin K (Z-Phe-Arg-AMC substrate)
T4 construct: purchased Abcam ab157067
T4 sequence (P43235 115-329): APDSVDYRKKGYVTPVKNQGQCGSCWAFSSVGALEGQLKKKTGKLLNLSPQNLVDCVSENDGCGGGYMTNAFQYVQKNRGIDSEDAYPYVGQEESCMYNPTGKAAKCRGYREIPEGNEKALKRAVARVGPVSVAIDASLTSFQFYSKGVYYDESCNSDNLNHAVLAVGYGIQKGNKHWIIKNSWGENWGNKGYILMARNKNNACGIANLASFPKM
Experimental: as §1

T2 sequence (P07711 114-333): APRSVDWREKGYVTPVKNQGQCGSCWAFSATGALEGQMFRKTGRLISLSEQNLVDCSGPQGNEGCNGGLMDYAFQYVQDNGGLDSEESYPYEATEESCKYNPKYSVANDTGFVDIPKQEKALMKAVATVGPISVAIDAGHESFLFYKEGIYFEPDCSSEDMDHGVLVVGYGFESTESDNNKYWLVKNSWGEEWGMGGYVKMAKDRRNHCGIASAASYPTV

Structure (SMILES): Cc1cccc(C)c1C(=O)OCC(=O)C(CCCCN)NC(=O)C(CCCNC(=N)N)NC(=O)OCc1ccccc1 (stereo not drawn) [Z-Arg-Lys-AOMK]
- inhibition of proteolytic (cathepsin B) activity in cell lysate [1]: completely inhibited
- IC50 ([2]; cathepsin L, pH 4.6): > 16 µM
- inhibition at 16 µM ([2]; cathepsin L, pH 4.6, 16,000 nM inhibitor): 32%
- inhibition of cathepsin L ([2]; pH 4.6, inhibitor at 16 μM): minimal inhibition
- cathepsin B activity after pre-incubation and dilution of inhibitor [3]: no cathepsin B activity
- IC50 ([4]; cathepsin K, pH 4.6): > 16 µM
- IC50 ([4]; cathepsin K, pH 7.2): > 16 µM
- inhibition at 16 µM ([4]; cathepsin K, pH 7.2, 16,000 nM inhibitor): 31%
- inhibition of cathepsin K ([4]; pH 4.6, inhibitor at 16 μM): no inhibition
- inhibition of cathepsin K ([4]; pH 7.2, inhibitor at 16 μM): minimally inhibited
